Assay results reported in DBAASP.
In brackets after ≈: the same amount, converted by molar mass. One block for each compound: values may come before it.

How the values were obtained:
Test in all cases: ≥ marks a high value that may be exact or a test limit, other limits are often not marked, values filed in µg/mL are converted to µM
[1] = test system: Escherichia coli ATCC 25922
[2] = test system: Escherichia coli CCT 1371
[3] = test system: Staphylococcus saprophyticus
[4] = test system: Staphylococcus aureus ATCC 25923
[5] = test system: Bacillus subtilis CCT 2471
[6] = test system: Enterobacter cloacae ATCC 23355
[7] = test system: Staphylococcus epidermidis
[8] = test system: Staphylococcus aureus ATCC 6538
[9] = test system: Bacillus subtilis ATCC 6633
[10] = test system: Escherichia coli DSM 1103
[11] = test system: Escherichia coli DH5alpha
[12] = test system: Staphylococcus aureus DSM 1104
[13] = test system: Kocuria rhizophila DSM 348
[14] = test system: Micrococcus luteus DSM 1790
[15] = test system: Aspergillus flavus ATCC 24109
[16] = test system: Candida albicans ATCC 10231
[17] = test system: Candida glabrata ATCC 90030
[18] = test system: Aspergillus niger ATCC 9142
[19] = test system: Candida krusei ATCC 28870
[20] = test system: Cryptococcus neoformans ATCC 2517
[21] = test system: Trichophyton mentagrophytes ATCC 32510
[22] = test system: Pseudomonas aeruginosa ATCC 27853
[23] = test system: Aspergillus fumigatus ATCC 1022
[24] = test system: Bacillus subtilis ATCC 6051
[25] = test system: Enterococcus faecalis ATCC 29212
[26] = test system: Saccharomyces cerevisiae PTCC 5052
[27] = test system: Microsporum canis PTCC 5069
[28] = test system: Candida krusei DSM 70079
[29] = test system: Aspergillus niger ATCC 9029
[30] = test system: Aspergillus fumigatus Af293
[31] = test system: Aspergillus flavus PFCC 100
[32] = test system: Escherichia coli O111:B4
[33] = test system: Salmonella typhimurium C610
[34] = test system: Staphylococcus aureus K147
[35] = test system: Pseudomonas aeruginosa H103
[36] = test system: Bacillus subtilis
[37] = test system: Staphylococcus aureus SAP 0017
[38] = test system: Enterococcus faecalis
[39] = test system: Micrococcus luteus ATCC 49732
[40] = test system: Staphylococcus aureus ATCC 12600
[41] = test system: Candida albicans ATCC 14053
[42] = test system: Escherichia coli ATCC 11775
[43] = test system: Staphylococcus aureus
[44] = test system: Streptococcus sanguinis
[45] = test system: Bacillus megaterium CIP 51.17
[46] = test system: Escherichia coli CIP 54.8T

MIC [1]: 7 µM (≈ 10.4 µg/mL) | MIC [2]: 17 µM (≈ 25.2 µg/mL) | MIC [3]: 3 µM (≈ 4.45 µg/mL) | MIC [4]: 7 µM (≈ 10.4 µg/mL) | MIC [5]: ≥ 68 µM | MIC [6]: 17 µM (≈ 25.2 µg/mL) | MIC [7]: ≥ 34 µM | MIC [8]: 34 µM (≈ 50.4 µg/mL)
SMILES: CC[C@H](C)[C@H](NC(=O)CNC(=O)[C@H](CCSC)NC(=O)[C@H](CC(C)C)NC(=O)[C@H](CCCCN)NC(=O)[C@@H](N)CC(C)C)C(=O)N[C@H](C(=O)N[C@@H](CCCCN)C(=O)N[C@@H](CCCCN)C(=O)N[C@H](C(=O)N[C@@H](CC(C)C)C(=O)NCC(=O)N[C@@H](C)C(=O)N[C@@H](CC(C)C)C(N)=O)C(C)C)C(C)C [LKLMGIVKKVLGAL]

MIC [9]: ≥ 68.2 µM | MIC [10]: ≥ 68.2 µM | MIC [11]: ≥ 68.2 µM | MIC [12]: ≥ 68.2 µM | MIC [13]: ≥ 68.2 µM | MIC [14]: ≥ 68.2 µM
SMILES: CC(C)C[C@H](NC(=O)[C@H](C)NC(=O)[C@H](CCCCN)NC(=O)[C@H](CC(C)C)NC(=O)[C@H](C)NC(=O)[C@H](CC(C)C)NC(=O)[C@H](CCCCN)NC(=O)[C@H](CC(C)C)NC(=O)[C@H](C)NC(=O)[C@H](CC(C)C)NC(=O)[C@@H](N)CCCCN)C(=O)N[C@@H](CCCCN)C(=O)N[C@@H](C)C(=O)N[C@@H](C)C(=O)N[C@@H](CC(C)C)C(=O)N[C@@H](CCCCN)C(=O)N[C@@H](CC(C)C)C(=O)N[C@@H](C)C(=O)O [KLALKLALKALKAALKLA]

MIC [15]: ≥ 1040 µM | MIC [16]: 16.6 µM (≈ 16 µg/mL) | MIC [17]: ≥ 130 µM | MIC [1]: > 1040 µM | MIC [18]: ≥ 130 µM | MIC [19]: ≥ 33.3 µM | MIC [20]: ≥ 1040 µM | MIC [21]: ≥ 65 µM | MIC [4]: > 1040 µM | MIC [22]: > 1040 µM | MIC [23]: 7.59 µM (≈ 7.3 µg/mL) | MIC [24]: ≥ 1040 µM | MIC [25]: > 1040 µM | MIC [26]: 16.6 µM (≈ 16 µg/mL) | MIC [27]: ≥ 130 µM
SMILES: CC[C@H](C)[C@H](NC(=O)[C@H](CCCCN)NC(=O)[C@H](Cc1ccccc1)NC(=O)[C@@H](N)Cc1c[nH]c2ccccc12)C(=O)N[C@H](C(=O)N[C@@H](CCCCN)C(=O)N[C@@H](CCCCN)C(=O)O)[C@@H](C)CC [WFKIIKK]

MIC [28]: 20.7 µM (≈ 57.5 µg/mL) | MIC [16]: 21.6 µM (≈ 60 µg/mL) | MIC [17]: 19.8 µM (≈ 55 µg/mL) | MIC [29]: 22.5 µM (≈ 62.5 µg/mL) | MIC [30]: 20.7 µM (≈ 57.5 µg/mL) | MIC [31]: 23.4 µM (≈ 65 µg/mL)
SMILES: CC[C@H](C)[C@H](NC(=O)[C@@H](NC(=O)[C@H](CCCCN)NC(=O)[C@H](CC(=O)O)NC(=O)[C@H](C)NC(=O)[C@H](CCC(N)=O)NC(=O)[C@H](CCCN=C(N)N)NC(=O)[C@@H](NC(=O)[C@H](CO)NC(=O)CNC(=O)[C@H](CCCN=C(N)N)NC(=O)[C@H](CCC(=O)O)NC(=O)[C@H](Cc1c[nH]c2ccccc12)NC(=O)[C@@H](NC(=O)[C@H](CS)NC(=O)[C@H](CC(C)C)NC(=O)[C@H](CCC(=O)O)NC(=O)[C@H](CCC(N)=O)NC(=O)[C@H](CCCCN)NC(=O)[C@H](CO)NC(=O)[C@@H](NC(=O)[C@H](CCCN=C(N)N)NC(=O)CN)[C@@H](C)O)[C@@H](C)O)C(C)C)[C@@H](C)O)C(=O)N[C@@H](C)C(=O)NCC(=O)O [GRTSKQELCTWERGSVRQADKTIAG]

MIC [32]: 5.85 µM (≈ 16 µg/mL) | MIC [33]: 5.85 µM (≈ 16 µg/mL) | MIC [34]: ≥ 46.8 µM | MIC [35]: 23.4 µM (≈ 64 µg/mL) | MIC [36]: ≥ 46.8 µM | MIC [7]: ≥ 46.8 µM | MIC [37]: ≥ 46.8 µM | MIC [38]: ≥ 46.8 µM
SMILES: CC[C@H](C)[C@H](NC(=O)[C@H](C)NC(=O)[C@@H]1CCCN1C(=O)CNC(=O)[C@H](C)NC(=O)[C@@H](NC(=O)[C@H](CCCCN)NC(=O)[C@H](CC(C)C)NC(=O)CNC(=O)[C@H](CO)NC(=O)[C@H](CC(C)C)NC(=O)[C@@H](NC(=O)[C@H](CCCN=C(N)N)NC(=O)[C@H](CCCN=C(N)N)NC(=O)[C@H](Cc1c[nH]c2ccccc12)NC(=O)[C@H](Cc1c[nH]c2ccccc12)NC(=O)[C@H](CCCCN)NC(=O)[C@@H](N)CCCCN)C(C)C)[C@@H](C)O)C(=O)N[C@@H](CCC(N)=O)C(=O)N[C@@H](CO)C(=O)N[C@H](C(=O)N[C@@H](CC(C)C)C(=O)N[C@@H](CC(N)=O)C(=O)N[C@@H](CCCCN)C(=O)O)C(C)C [KKWWRRVLSGLKTAGPAIQSVLNK]

MIC [39]: ≥ 479 µM | MIC [40]: ≥ 479 µM | MIC [41]: ≥ 479 µM | MIC [42]: ≥ 479 µM
SMILES: CC(C)C[C@H](NC(=O)[C@H](Cc1cnc[nH]1)NC(=O)[C@@H](N)C(C)C)C(=O)N1CCC[C@H]1C(=O)N1CCC[C@H]1C(=O)O [VHLPP]

MIC [43]: 5.8 µM (≈ 6.92 µg/mL) | MIC [44]: 7.1 µM (≈ 8.48 µg/mL)
SMILES: NC(=O)[C@H](Cc1ccccc1)NC(=O)[C@H](Cc1ccccc1)NC(=O)[C@H](Cc1ccccc1)NC(=O)[C@H](Cc1ccccc1)NC(=O)[C@H](Cc1ccccc1)NC(=O)[C@H](Cc1ccccc1)NC(=O)[C@H](Cc1ccccc1)NC(=O)[C@@H](N)Cc1ccccc1 [FFFFFFFF]

MIC [45]: ≥ 100 µM | MIC [46]: ≥ 35.4 µM
SMILES: CC[C@H](C)[C@H](NC(=O)[C@H](CCCN=C(N)N)NC(=O)[C@H](CC(N)=O)NC(=O)[C@H](CC(C)C)NC(=O)[C@H](Cc1ccccc1)NC(=O)[C@H](CCCN=C(N)N)NC(=O)[C@H](Cc1ccccc1)NC(=O)[C@H](CCCN=C(N)N)NC(=O)[C@@H](NC(=O)[C@H](CC(C)C)NC(=O)[C@@H](NC(=O)[C@@H](N)C(C)C)[C@@H](C)CC)[C@@H](C)O)C(=O)N[C@H](C(=O)N[C@@H](CCC(=O)O)C(=O)N1CCC[C@H]1C(=O)N[C@@H](CC(C)C)C(=O)N[C@@H](CC(C)C)C(=O)N[C@@H](CCCCN)C(=O)N[C@@H](CCCCN)C(=O)N[C@@H](C)C(=O)O)C(C)C [VILTRFRFLNRIVEPLLKKA]
